# Reference: US11426397B2, “Piperidinyl- and piperazinyl-substituted heteroaromatic carboxamides as modulators of GPR6” (TAKEDA PHARMACEUTICAL COMPANY LIMITED, priority 2017, dated 2022)
# Target: T1, GPR6 receptor expressed in CHO-K1 cells (Homo sapiens, UniProt P46095)
# T1 construct: expressed in transfected cells
# Experiment: In vitro inhibition of cAMP (EC50), cell-based HTRF cAMP assay
# Conditions: inhibition of constitutive cAMP activity of GPR6 in CHO-K1 cells
# Summary of the method: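 Cellular cAMP measured by Lance Ultra HTRF (Eu-cAMP tracer, ULight anti-cAMP), with EC50 fitted by four-parameter logistic. Test compounds sat on cells 45 min, 37 °C, in pH 7.4 Ringer's with 300 μM IBMX and 0.5% BSA; GPR6 in CHO-K1 induced beforehand by doxycycline, 2 μg/mL, 20 h.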
# T1 sequence (P46095 whole entry): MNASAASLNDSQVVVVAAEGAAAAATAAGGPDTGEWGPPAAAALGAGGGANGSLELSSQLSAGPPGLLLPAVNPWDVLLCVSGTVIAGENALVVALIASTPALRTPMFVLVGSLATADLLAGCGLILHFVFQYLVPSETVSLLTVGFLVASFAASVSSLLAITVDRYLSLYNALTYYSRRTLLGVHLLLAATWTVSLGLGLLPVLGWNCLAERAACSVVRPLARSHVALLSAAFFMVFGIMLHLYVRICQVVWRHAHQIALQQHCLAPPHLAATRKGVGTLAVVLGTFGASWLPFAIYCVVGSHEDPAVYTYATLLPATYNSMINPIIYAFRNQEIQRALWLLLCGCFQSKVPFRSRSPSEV
row,Structure (SMILES),"pEC50, in vitro inhibition of cAMP"
1,"COc1ccc(OC)c(C(=O)Nc2cc(C#N)ccc2N2CCC(Oc3ccc(F)cc3F)CC2)c1 [Example 205, N-(5-cyano-2-(4-(2,4-difluorophenoxy)piperidin-1-yl)phenyl)-2,5-dimethoxybenzamide]",6.0
2,"COCc1cnc(N2CCC(Oc3ccc(F)cc3F)CC2)c(NC(=O)c2cccnc2OC)c1 [Example 65, N-(2-(4-(2,4-difluorophenoxy)piperidin-1-yl)-5-(methoxymethyl)pyridin-3-yl)-2-methoxynicotinamide]",7.3
3,"COc1ccc(Br)cc1C(=O)Nc1cc(C#N)ccc1N1CCC(Oc2ccc(F)cc2F)CC1 [Example 225, 5-bromo-N-(5-cyano-2-(4-(2,4-difluorophenoxy)piperidin-1-yl)phenyl)-2-methoxybenzamide]",6.4
4,"[2H]C([2H])([2H])N(C(=O)c1cc(N2CCC(Oc3ccc(F)cc3F)CC2)c(NC(=O)c2cccnc2OC)cn1)C([2H])([2H])[2H] [Example 22, 4-(4-(2,4-difluorophenoxy)piperidin-1-yl)-5-(2-methoxynicotinamido)-N,N-bis(methyl-d3)picolinamide]",7.1
5,"N#Cc1ccc(N2CCC(Oc3ccc(F)cc3F)CC2)c(NC(=O)c2cnn3c2OCCC3)c1 [Example 53, N-(5-cyano-2-(4-(2,4-difluorophenoxy)piperidin-1-yl)phenyl)-6,7-dihydro-5H-pyrazolo[5,1-b][1,3]oxazine-3-carboxamide]",6.3
6,"N#Cc1ccc(N2CCC(Oc3ccc(F)cc3F)CC2)c(NC(=O)c2cnsn2)c1 [Example 134, N-(5-cyano-2-(4-(2,4-difluorophenoxy)piperidin-1-yl)phenyl)-1,2,5-thiadiazole-3-carboxamide]",5.8
7,"Cc1ccc(SC2CCN(c3ncc(C#N)cc3NC(=O)c3ccccn3)CC2)cc1 [Example 69, N-(5-cyano-2-(4-(p-tolylthio)piperidin-1-yl)pyridin-3-yl)picolinamide]",6.7

# Now from value to compound:
row,"pEC50, in vitro inhibition of cAMP",Structure (SMILES)
1,6.8,"N#Cc1ccc(N2CCC(Oc3ccc(F)cc3F)CC2)c(NC(=O)c2cnc3ccccn3c2=O)c1 [Example 178, N-(5-cyano-2-(4-(2,4-difluorophenoxy)piperidin-1-yl)phenyl)-4-oxo-4H-pyrido[1,2-a]pyrimidine-3-carboxamide]"
2,6.8,"CCn1nc(C(=O)Nc2cc(C#N)ccc2N2CCC(Oc3ccc(F)cc3F)CC2)cc1C [Example 143, N-(5-cyano-2-(4-(2,4-difluorophenoxy)piperidin-1-yl)phenyl)-1-ethyl-5-methyl-1H-pyrazole-3-carboxamide]"
3,<5.7,"CC(=O)n1ncc2ccc(NC(=O)c3ccccn3)c(N3CCC(Oc4ccc(F)cc4F)CC3)c21 [Example 76, N-(1-acetyl-7-(4-(2,4-difluorophenoxy)piperidin-1-yl)-1H-indazol-6-yl)picolinamide]"
4,6.6,"COc1nn(C)cc1C(=O)Nc1cc(C#N)cnc1N1CCN(Cc2ccc(OC(F)F)cc2)CC1 [Example 162, N-(5-cyano-2-(4-(4-(difluoromethoxy)benzyl)piperazin-1-yl)pyridin-3-yl)-3-methoxy-1-methyl-1H-pyrazole-4-carboxamide]"
5,6.4,CC(C)c1ccc(C(=O)Nc2cc(C#N)ccc2N2CCC(Oc3ccc(F)cc3F)CC2)c(=O)n1C [Example 186]
6,7.2,"CCCNC(=O)c1cc(N2CCC(Oc3ccc(F)cc3F)CC2)c(NC(=O)c2cccnc2OC)cn1 [Example 254, 4-(4-(2,4-difluorophenoxy)piperidin-1-yl)-5-(2-methoxynicotinamido)-N-propylpicolinamide]"
7,6.4,"COc1nn(C)cc1C(=O)Nc1cc(C#N)ncc1N1CCN(Cc2cc(F)c(F)c(F)c2)CC1 [Example 267, N-(2-cyano-5-(4-(3,4,5-trifluorobenzyl)piperazin-1-yl)pyridin-4-yl)-3-methoxy-1-methyl-1H-pyrazole-4-carboxamide]"
